Laboratory results from a compilation of properties of binary mixtures (doi:10.1016/j.molliq.2022.119758).

Assay: xn = mol fraction of the nth substance listed
Conditions: 101 kPa

O=C1CCCO1 + CCC[N+]1(C)CCCC1.O=S(=O)([N-]S(=O)(=O)C(F)(F)F)C(F)(F)F
x2 = 0
Conditions | viscosity [mPa·s]
278.15 K | 2.56
298.15 K | 1.859
308.15 K | 1.641
328.15 K | 1.242
338.15 K | 1.106
358.15 K | 0.894

CCC[N+]1(C)CCCC1.O=S(=O)([N-]S(=O)(=O)C(F)(F)F)C(F)(F)F + O=C1CCCO1
viscosity [mPa·s]
Conditions | 278.15 K | 288.15 K | 298.15 K | 308.15 K | 318.15 K | 328.15 K | 338.15 K | 348.15 K | 358.15 K
x1 = 0.0657 | – | 3.14 | 2.65 | 2.296 | 1.951 | 1.694 | – | 1.328 | 1.191
x1 = 0.1741 | 6.97 | – | 4.45 | 3.67 | 3.08 | – | – | – | –
x1 = 0.3874 | 16.24 | 11.87 | 9.04 | 7.09 | 5.71 | 4.7 | 3.95 | 3.37 | 2.92
x1 = 1 | – | 96.2 | 60.6 | 40.8 | 28.9 | 21.3 | 16.29 | 12.82 | –
